Reference: PMC3782441, “Putative Bioactive Motif of Tritrpticin Revealed by an Antibody with Biological Receptor-Like Properties” (PLoS ONE, 2013)
≈ marks a conversion by molar mass, not a printed value. Entries after “also recorded” stand apart in the source; their conditions may differ. Where two headings read alike, the source gives them in different places. Where no end group is shown, it is not given here.

Tests used:
[1] = test system: E. coli BL21λD3; format: cell-based; conditions: BL21λD3, 2 h
Experimental: (§1) Radial diffusion assay using double-layered agarose involved incubating ~ 2 x 10^6 mid-log phase bacterial cells with 50 nmol of peptide solution in nutrient-poor agarose at 37°C for 3 h. […] Minimum inhibitory concentration (MIC) was determined by broth microdilution method in which ~10^4 bacterial cells in 100 µl of 10 mM phosphate buffer were incubated for with serially diluted peptide solution in a 96-well microtiter plate for 2 hrs at 37°C. Addition of LB medium subsequently was used to ascertain the minimum peptide concentration sufficient to prevent bacterial growth, observable at OD600.

[2] = test system: E. coli ATCC25922; format: cell-based; conditions: ATCC25922, 2 h
Experimental: as §1

[3] = test system: different bacterial strains; assay: Antimicrobial activity against different bacterial strains (radial diffusion, MIC); format: cell-based
Experimental: as §1

[4] = test system: mAb 6C6D7; assay: SPR binding of K-tritrpticin (immobilised) to mAb 6C6D7; design: species or system BALB/c mice; conditions: for ka (rate of association) / kd (rate of dissociation): BIAcore 2000, CM4 chip, bivalent model; for Kd: KD = kdiss/kass, read-out: KD (dissociation constant); for ΔGeq (Gibbs free energy at equilibrium): ΔGeq = RTlnKD
Experimental: (§2) Affinity measurements were based on surface plasmon resonance (SPR) technique, carried out on BIAcore 2000 (GE Healthcare). K-tritrpticin was amine coupled to a CM4 chip (~6 resonance units) and mAb 6C6D7 was injected as analyte with a 6 min association/15 min dissociation phase. Regeneration was achieved by 0.1 N HCl. Interaction curves were simultaneously fit using bivalent model in BIAevaluation program to determine KD = kdiss/kass and ΔGeq = RTlnKD, R is the universal gas constant and T is the temperature in kelvin. The temperature sensitivity of Ag association and dissociation rates of the Ab was assessed on the basis of the Arrhenius plots. The slopes of the Arrhenius plots provide the activation energy (Ea) for the corresponding steps. The individual thermodynamic parameters were calculated using the following equations: ΔHa/d = Ea-RT; ln(ka/d/T) = -ΔHa/d/RT + […] + ln(K'/h). In these equations K' represents Boltzmann’s constant and h the Planck’s constant. Using these equations, the corresponding values of ΔH, T∆S, and ΔG for association and dissociation as well as the corresponding net values at equilibrium were calculated.

[5] = test system: E. coli BL21λD3; assay: Radial diffusion assay, E. coli BL21λD3; format: cell-based; conditions: 50 nmol of peptide, 37°C for 3 h
Experimental: as §1

[6] = test system: DNA; conditions: ref [17],[18]; cited from earlier work
Excerpt: (§3) It is now well established that antimicrobial peptides are an important component of the innate defenses in a wide variety of species. They display broad spectrum of activity, rapid killing kinetics, and a lower incidence of generating resistance and are being increasingly explored as an alternative to conventional antibiotics especially as more and more drug resistant strains emerge. As most of these peptides kill microorganisms rapidly as compared to other antibiotics, development of resistance to them also is less likely. One of the large classes of antimicrobial pepti ...

[7] = ref [20]; cited from earlier work
Excerpt: as §3

[8] = test system: topoisomerase I; conditions: ref [19]; cited from earlier work
Excerpt: as §3

[9] = test system: calmodulin; conditions: ref [19]; cited from earlier work
Excerpt: as §3

[10] = target: T1, K-tritrpticin (pig); assay: SPR; BIAcore 2000; K-tritrpticin amine coupled to a CM4 chip (~6 RU), mAb 6C6D7 as analyte, 6 min association/15 min dissociation; bivalent model; 15 C
T1 sequence (peptide): KVRRFPWWWPFLRR

[11] = target: T1, K-tritrpticin (pig); assay: SPR; BIAcore 2000; K-tritrpticin amine coupled to a CM4 chip (~6 RU), mAb 6C6D7 as analyte, 6 min association/15 min dissociation; bivalent model; 30 C
[12] = target: T1, K-tritrpticin (pig); assay: SPR; BIAcore 2000; K-tritrpticin amine coupled to a CM4 chip (~6 RU), mAb 6C6D7 as analyte, 6 min association/15 min dissociation; bivalent model; 20 C
[13] = target: T1, K-tritrpticin (pig); assay: SPR; BIAcore 2000; K-tritrpticin amine coupled to a CM4 chip (~6 RU), mAb 6C6D7 as analyte (62.5-1000 nM), 6 min association/15 min dissociation; bivalent model; 25 C
[14] = target: T1, K-tritrpticin (pig); assay: SPR; BIAcore 2000; K-tritrpticin amine coupled to a CM4 chip (~6 RU), mAb 6C6D7 as analyte, 6 min association/15 min dissociation; bivalent model; 35 C
[15] = SPR binding of mAb 6C6D7 (analyte) to peptide antigen K-tritrpticin
Experimental: as §2

[16] = ELISA of hybridoma clones on indolicidin; format: binding
Excerpt: (§4) The sera from the immunized mouse were checked for anti-tritrpticin antibody titers. The highest responder of the group of mice was then sacrificed to harvest B cells from the spleen. The cells were allowed to fuse with the SP2/0 myeloma cells, maintained in log phase, in the presence of PEG1600 (Sigma-Aldrich). The cells were subjected to hypoxanthine-aminopterin-thymidine (Sigma) selection in DMEM (PAA Laboratories GmbH, Austria) in which only the hybrid cells are able to survive and grow. The supernatant of the wells with colonies of hybrid cells was screened for the presence of peptide recognizing Ab by ELISA, in which tritrpticin was used as coating antigen. The positive clones were further subcloned using limited dilution technique to ensure monoclonality.
(§5) The binding of the Ab from cell supernatant or in purified form, to the various peptide ligands was assayed by indirect ELISA. The peptide analogs were used as coating Ag at a concentration of 10 µg per well on 96-well immunosorbent plates. […] HRP –labeled goat anti-mouse IgG was used as secondary Ab (Jackson Immuno Research) and o-phenylenediamine (Sigma) and H2O2 were used as peroxidase substrate. Absorbance was recorded at 490 nm after addition of 1 N H2SO4.

[17] = ELISA of hybridoma clones on tritrpticin; format: binding; conditions: culture supernatant screening
Excerpt: as §4, §5

[18] = test system: BSA; assay: ELISA of hybridoma clones on BSA (negative control); format: binding
Excerpt: as §4, §5

[19] = equilibrium, all temperatures 15-35 °C, Arrhenius plot

## YHDRPPPRPFKH-OH [12PhD1]
[1]
  MIC: 400 µM
[2]
  MIC: 400 µM
[3]
  antimicrobial activity compared with tritrpticin: lower though qualitatively similar broad spectrum antimicrobial activity as tritrpticin
[3]; radial diffusion and MIC, bacterial strains
  antibiotic activity: broad spectrum antibiotic activity

## K-tritrpticin: tritrpticin with lysine introduced at the N terminus (KVRRFPWWWPFLRR)
[4]; 15 °C
  ka (rate of association): 24400 M⁻¹ s⁻¹
  kd (rate of dissociation): 0.00515 s⁻¹
  Kd: 211 nM
  ΔGeq (Gibbs free energy at equilibrium): -8.80 kcal/mol
[4]; 20 °C
  ka (rate of association): 37900 M⁻¹ s⁻¹
  kd (rate of dissociation): 0.0115 s⁻¹
  Kd: 303 nM
  ΔGeq (Gibbs free energy at equilibrium): -8.74 kcal/mol
[4]; 25 °C
  ka (rate of association): 39100 M⁻¹ s⁻¹
  kd (rate of dissociation): 0.0137 s⁻¹
  Kd: 350 nM
  ΔGeq (Gibbs free energy at equilibrium): -8.80 kcal/mol
[4]; 30 °C
  kd (rate of dissociation): 0.0231 s⁻¹
  Kd: 545 nM
  ΔGeq (Gibbs free energy at equilibrium): -8.68 kcal/mol
[4]; 35 °C
  ka (rate of association): 54100 M⁻¹ s⁻¹
  kd (rate of dissociation): 0.0343 s⁻¹
  Kd: 634 nM
  ΔGeq (Gibbs free energy at equilibrium): -8.73 kcal/mol

## EHGTPPRVMSSM [unrelated peptide used as negative control, reference compound]
[5]
  formation of clearance zone: did not led to the formation of clearance zone
[3]; 50 nmoles of peptide, radial diffusion, different bacterial strains
  formation of clearance zone: did not led to the formation of clearance zone

## ILPWKWPWWPWRR [indolicidin, closely related cathelicidin peptide indolicidin ([…])]
[6]
  interaction with DNA: interaction
[7]
  interaction with ATP: interaction
[8]
  interaction with topoisomerase I: interaction
[9]
  interaction with calmodulin: interaction

## CC(C)C[C@H](NC(=O)[C@H](Cc1ccccc1)NC(=O)[C@@H]1CCCN1C(=O)[C@H](Cc1c[nH]c2ccccc12)NC(=O)[C@H](Cc1c[nH]c2ccccc12)NC(=O)[C@H](Cc1c[nH]c2ccccc12)NC(=O)[C@@H]1CCCN1C(=O)[C@H](Cc1ccccc1)NC(=O)[C@H](CCCNC(=N)N)NC(=O)[C@H](CCCNC(=N)N)NC(=O)[C@@H](N)C(C)C)C(=O)N[C@@H](CCCNC(=N)N)C(=O)N[C@@H](CCCNC(=N)N)C(=O)O [Tritrpticin]
[1]
  MIC: 3.12 µM (≈ 5.94 µg/mL)
[2]
  MIC: 3.12 µM (≈ 5.94 µg/mL)

B1: anti-tritrpticin monoclonal antibody 6C6D7 (antibody, V domains shown)
VH: VELQESGPELVKPGASVKVSCKASGYSSTDYNMNWVKQSHGKSLEWIGSFDPYNGGITYNQKFEGKATLTVDKSSNTAFMHLNSLTSEDSAVYYCAKYFGYDAWFAYWGQGTLVTVST
VL: FIVMTQTPASLAVSLGQRATISCKASQSVDYGGDSYLNWYQQKPGQPPKLLIYAASNLESGIPARFSGSGSGTDFTLNIHPVEEEDAATYFCQQSHEDPLTFGAGTKLELR
[10]
  Kd: 211 nM
  koff: 0.00515 s⁻¹
  kon: 24400 M⁻¹ s⁻¹
[11]
  Kd: 545 nM
  koff: 0.0231 s⁻¹
  kon: 44200 M⁻¹ s⁻¹
[12]
  Kd: 303 nM
  koff: 0.0115 s⁻¹
  kon: 37900 M⁻¹ s⁻¹
[13]
  Kd: 350 nM
  koff: 0.0137 s⁻¹
  kon: 39100 M⁻¹ s⁻¹
[14]
  Kd: 634 nM
  koff: 0.0343 s⁻¹
  kon: 54100 M⁻¹ s⁻¹

B2: mAb 6C6D7: anti-tritrpticin monoclonal antibody, 6C6 subcloned as 6C6D7 (antibody, V domains shown)
VH: VELQESGPELVKPGASVKVSCKASGYSSTDYNMNWVKQSHGKSLEWIGSFDPYNGGITYNQKFEGKATLTVDKSSNTAFMHLNSLTSEDSAVYYCAKYFGYDAWFAYWGQGTLVTVST
VL: FIVMTQTPASLAVSLGQRATISCKASQSVDYGGDSYLNWYQQKPGQPPKLLIYAASNLESGIPARFSGSGSGTDFTLNIHPVEEEDAATYFCQQSHEDPLTFGAGTKLELR
[15]; 15 °C to 35 °C
  fold decrease in affinity (KD): 3 fold
  fold increase in kdiss: approximately 7 fold
  fold increase in the association rate constant: 2 fold
[15]; 25 °C
  kass: 39100 M⁻¹ s⁻¹
  kdiss: 0.0137 s⁻¹
[15]; 25 °C, read-out: affinity (KD)
  Kd: 350 nM
[15]; Arrhenius plots, 15-35 °C
  temperature sensitivity of dissociation phase: more sensitive to variation in temperature in comparison with the association phase
[15]; [19]
  enthalpy contribution to binding (ΔH): marginally unfavorable
  entropy contribution to binding (TΔS): highly favorable

B3: 6C6: anti-tritrpticin hybridoma clone, subcloned as 6C6D7 (antibody, V domains shown)
VH: VELQESGPELVKPGASVKVSCKASGYSSTDYNMNWVKQSHGKSLEWIGSFDPYNGGITYNQKFEGKATLTVDKSSNTAFMHLNSLTSEDSAVYYCAKYFGYDAWFAYWGQGTLVTVST
VL: FIVMTQTPASLAVSLGQRATISCKASQSVDYGGDSYLNWYQQKPGQPPKLLIYAASNLESGIPARFSGSGSGTDFTLNIHPVEEEDAATYFCQQSHEDPLTFGAGTKLELR
[16]
  binding to indolicidin (ELISA): not able to bind
[17]
  binding to tritrpticin (ELISA): significant binding
[18]
  binding to BSA (ELISA): negligible binding; also recorded: not able to bind
